Laboratory results: patent US20250163104A1, “MACROCYCLIC IMMUNOMODULATORS” (priority 2021, published 2025)
pIC50: −log10 of the molar value. Where a SMILES comes first, the peptide text is derived from it. Bridges are numbered along the chain shown (N, C = ends). [ ]: non-standard residue; d: D form. Bip = N[C@@H](Cc1ccc(-c2ccccc2)cc1)C(=O)O; Orn = NCCC[C@H](N)C(=O)O; Dab = NCC[C@H](N)C(=O)O; Dap = NC[C@H](N)C(=O)O

Molecular target: T1, human PD-1 / PD-L1-Ig binding on Jurkat cell line over-expressing human PD-1 (Jurkat-PD-1) (Homo sapiens, UniProt Q15116)
T1 construct: expressed in transfected cells; host or cells: Jurkat
Test: Jurkat-PD-1 Cell Binding High-Content Screening Assay (CBA)
Format: cell-based
Details: Jurkat HPD1_PDL1 IC50, Jurkat-PD-1 cells, PE-labeled PD-L1-Ig 20 nM final
Summary of the method: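 Compounds were preincubated with Jurkat-hPD-1 cells in DMEM plus 10% fetal calf serum for 2 h at 37° C. Phycoerythrin-labeled PD-L1-Ig (20 nM final) was then added for 1 hour. Cells were fixed in 4% paraformaldehyde with Hoechst 33342, and bound fluorescence was quantified by high-content imaging.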

T1 sequence (Q15116 25-288): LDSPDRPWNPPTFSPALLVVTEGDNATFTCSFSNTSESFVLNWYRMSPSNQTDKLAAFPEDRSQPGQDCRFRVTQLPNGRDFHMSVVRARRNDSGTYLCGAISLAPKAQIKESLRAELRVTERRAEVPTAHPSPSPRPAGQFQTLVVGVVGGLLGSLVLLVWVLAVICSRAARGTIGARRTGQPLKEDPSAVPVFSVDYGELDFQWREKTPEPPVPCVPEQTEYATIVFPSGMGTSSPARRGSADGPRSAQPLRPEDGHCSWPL

Q: How did the pIC50 turn out when `CC(C)C[C@@H]1NC(=O)[C@H](Cc2c[nH]c3ccccc23)NC(=O)[C@H](CC(=O)O)NC(=O)[C@H](Cc2ccc(O)cc2)NC(=O)[C@H](Cc2ccccc2)NC(=O)CSC[C@@H](C(=O)NCC(N)=O)NC(=O)[C@H]([C@@H](C)O)NC(=O)[C@H](C(C)C)NC(=O)[C@H](CC(C)C)NC(=O)[C@H](CC(N)=O)NC(=O)[C@@H](C)NC(=O)[C@H](CN)NC(=O)[C@H](C(C)C)NC(=O)[C@H](Cc2ccc(-c3ccccc3)cc2)NC1=O` [Compound 1074] ({CH2CO}-FYDWL[Bip]V[Dap][dA]NLVTCG-NH2; thioether N-14) was run?
A: 6.90

Same assay, conditions: Jurkat-PD-1 cells, PE-labeled PD-L1-Ig 20 nM final; read-out: Jurkat HPD1_PDL1 IC50

Q: With `CC(C)C[C@@H]1NC(=O)[C@H](Cc2c[nH]c3ccccc23)NC(=O)[C@H](CC(=O)O)NC(=O)[C@H](Cc2ccc(O)cc2)NC(=O)[C@H](Cc2ccccc2)NC(=O)CSC[C@@H](C(=O)N[C@@H](C)C(N)=O)NC(=O)[C@H](CO)NC(=O)[C@H](C(C)C)NC(=O)[C@H](CC(C)C)NC(=O)[C@H](CCN)NC(=O)[C@@H](CC(C)C)NC(=O)[C@H](CCN)NC(=O)[C@H](C(C)C)NC(=O)[C@H](Cc2ccc(-c3ccccc3)cc2)NC1=O` [Compound 1061] ({CH2CO}-FYDWL[Bip]V[Dab][dL][Dab]LVSCA-NH2; thioether N-14) as the compound, how does the pIC50 read?
A: 8.06

Q: How did the pIC50 turn out when `CC(C)C[C@@H]1NC(=O)[C@H](Cc2c[nH]c3ccccc23)NC(=O)[C@H](CC(=O)O)NC(=O)[C@H](Cc2ccc(O)cc2)NC(=O)[C@H](Cc2ccccc2)NC(=O)CSC[C@@H](C(=O)N[C@@H](C)C(N)=O)NC(=O)[C@H]([C@@H](C)O)NC(=O)[C@H](C(C)C)NC(=O)[C@H](CC(C)C)NC(=O)[C@H](CCN)NC(=O)[C@@H](CC(C)C)NC(=O)[C@H](CCN)NC(=O)[C@H](C(C)C)NC(=O)[C@H](Cc2ccc(-c3ccccc3)cc2)NC1=O` [Compound 1062] ({CH2CO}-FYDWL[Bip]V[Dab][dL][Dab]LVTCA-NH2; thioether N-14) was run?
A: 7.91

Q: With `CC(C)C[C@@H]1NC(=O)[C@H](Cc2c[nH]c3ccccc23)NC(=O)[C@H](CC(=O)O)NC(=O)[C@H](Cc2ccc(O)cc2)NC(=O)[C@H](Cc2ccccc2)NC(=O)CSC[C@@H](C(=O)NCC(N)=O)NC(=O)[C@H](CO)NC(=O)[C@H](C(C)C)NC(=O)[C@H](CC(C)C)NC(=O)[C@H](CCN)NC(=O)[C@@H](CC(C)C)NC(=O)[C@H](CCN)NC(=O)[C@H](C(C)C)NC(=O)[C@H](Cc2ccc(-c3ccccc3)cc2)NC1=O` [Compound 1063] ({CH2CO}-FYDWL[Bip]V[Dab][dL][Dab]LVSCG-NH2; thioether N-14) as the compound, how does the pIC50 read?
A: 7.70

Q: `CC(C)C[C@@H]1NC(=O)[C@H](Cc2c[nH]c3ccccc23)NC(=O)[C@H](CC(=O)O)NC(=O)[C@H](Cc2ccc(O)cc2)NC(=O)[C@H](Cc2ccccc2)NC(=O)CSC[C@@H](C(=O)NCC(N)=O)NC(=O)[C@H]([C@@H](C)O)NC(=O)[C@H](C(C)C)NC(=O)[C@H](CC(C)C)NC(=O)[C@H](CC(N)=O)NC(=O)[C@@H](CC(C)C)NC(=O)[C@H](CCCN)NC(=O)[C@H](C(C)C)NC(=O)[C@H](Cc2ccc(-c3ccccc3)cc2)NC1=O` [Compound 1064] ({CH2CO}-FYDWL[Bip]V[Orn][dL]NLVTCG-NH2; thioether N-14) was tested. Which pIC50 did it give?
A: 7.29

Q: How did the pIC50 turn out when `CC(C)C[C@@H]1NC(=O)[C@H](Cc2c[nH]c3ccccc23)NC(=O)[C@H](CC(=O)O)NC(=O)[C@H](Cc2ccc(O)cc2)NC(=O)[C@H](Cc2ccccc2)NC(=O)CSC[C@@H](C(=O)N[C@@H](C)C(N)=O)NC(=O)[C@H](CO)NC(=O)[C@H](C(C)C)NC(=O)[C@H](CC(C)C)NC(=O)[C@H](CC(N)=O)NC(=O)[C@@H](CC(C)C)NC(=O)[C@H](CCCN)NC(=O)[C@H](C(C)C)NC(=O)[C@H](Cc2ccc(-c3ccccc3)cc2)NC1=O` [Compound 1065] ({CH2CO}-FYDWL[Bip]V[Orn][dL]NLVSCA-NH2; thioether N-14) was run?
A: 7.89

Q: With `CC(C)C[C@@H]1NC(=O)[C@H](Cc2c[nH]c3ccccc23)NC(=O)[C@H](CC(=O)O)NC(=O)[C@H](Cc2ccc(O)cc2)NC(=O)[C@H](Cc2ccccc2)NC(=O)CSC[C@@H](C(=O)N[C@@H](C)C(N)=O)NC(=O)[C@H]([C@@H](C)O)NC(=O)[C@H](C(C)C)NC(=O)[C@H](CC(C)C)NC(=O)[C@H](CC(N)=O)NC(=O)[C@@H](CC(C)C)NC(=O)[C@H](CCCN)NC(=O)[C@H](C(C)C)NC(=O)[C@H](Cc2ccc(-c3ccccc3)cc2)NC1=O` [Compound 1066] ({CH2CO}-FYDWL[Bip]V[Orn][dL]NLVTCA-NH2; thioether N-14) as the compound, how does the pIC50 read?
A: 7.37

Q: `CC(C)C[C@@H]1NC(=O)[C@H](Cc2c[nH]c3ccccc23)NC(=O)[C@H](CC(=O)O)NC(=O)[C@H](Cc2ccc(O)cc2)NC(=O)[C@H](Cc2ccccc2)NC(=O)CSC[C@@H](C(=O)NCC(N)=O)NC(=O)[C@H](CO)NC(=O)[C@H](C(C)C)NC(=O)[C@H](CC(C)C)NC(=O)[C@H](CC(N)=O)NC(=O)[C@@H](CC(C)C)NC(=O)[C@H](CCCN)NC(=O)[C@H](C(C)C)NC(=O)[C@H](Cc2ccc(-c3ccccc3)cc2)NC1=O` [Compound 1067] ({CH2CO}-FYDWL[Bip]V[Orn][dL]NLVSCG-NH2; thioether N-14) was tested. Which pIC50 did it give?
A: 7.65

Q: How did the pIC50 turn out when `CC(C)C[C@@H]1NC(=O)[C@H](Cc2c[nH]c3ccccc23)NC(=O)[C@H](CC(=O)O)NC(=O)[C@H](Cc2ccc(O)cc2)NC(=O)[C@H](Cc2ccccc2)NC(=O)CSC[C@@H](C(=O)NCC(N)=O)NC(=O)[C@H]([C@@H](C)O)NC(=O)[C@H](C(C)C)NC(=O)[C@H](CC(C)C)NC(=O)[C@H](CCN)NC(=O)[C@@H](CC(C)C)NC(=O)[C@H](CCCN)NC(=O)[C@H](C(C)C)NC(=O)[C@H](Cc2ccc(-c3ccccc3)cc2)NC1=O` [Compound 1068] ({CH2CO}-FYDWL[Bip]V[Orn][dL][Dab]LVTCG-NH2; thioether N-14) was run?
A: 7.76

Q: `CC(C)C[C@@H]1NC(=O)[C@H](Cc2c[nH]c3ccccc23)NC(=O)[C@H](CC(=O)O)NC(=O)[C@H](Cc2ccc(O)cc2)NC(=O)[C@H](Cc2ccccc2)NC(=O)CSC[C@@H](C(=O)N[C@@H](C)C(N)=O)NC(=O)[C@H](CO)NC(=O)[C@H](C(C)C)NC(=O)[C@H](CC(C)C)NC(=O)[C@H](CCN)NC(=O)[C@@H](CC(C)C)NC(=O)[C@H](CCCN)NC(=O)[C@H](C(C)C)NC(=O)[C@H](Cc2ccc(-c3ccccc3)cc2)NC1=O` [Compound 1069] ({CH2CO}-FYDWL[Bip]V[Orn][dL][Dab]LVSCA-NH2; thioether N-14) was tested. Which pIC50 did it give?
A: 7.86

Q: `CC(C)C[C@@H]1NC(=O)[C@H](Cc2c[nH]c3ccccc23)NC(=O)[C@H](CC(=O)O)NC(=O)[C@H](Cc2ccc(O)cc2)NC(=O)[C@H](Cc2ccccc2)NC(=O)CSC[C@@H](C(=O)NCC(N)=O)NC(=O)[C@H]([C@@H](C)O)NC(=O)[C@H](C(C)C)NC(=O)[C@H](CC(C)C)NC(=O)[C@H](CC(N)=O)NC(=O)[C@@H](CC(C)C)NC(=O)[C@H](CN)NC(=O)[C@H](C(C)C)NC(=O)[C@H](Cc2ccc(-c3ccccc3)cc2)NC1=O` [Compound 1070] ({CH2CO}-FYDWL[Bip]V[Dap][dL]NLVTCG-NH2; thioether N-14) was tested. Which pIC50 did it give?
A: 7.41

Q: With `CC(C)C[C@@H]1NC(=O)[C@H](Cc2c[nH]c3ccccc23)NC(=O)[C@H](CC(=O)O)NC(=O)[C@H](Cc2ccc(O)cc2)NC(=O)[C@H](Cc2ccccc2)NC(=O)CSC[C@@H](C(=O)N[C@@H](C)C(N)=O)NC(=O)[C@H]([C@@H](C)O)NC(=O)[C@H](C(C)C)NC(=O)[C@H](CC(C)C)NC(=O)[C@H](CCN)NC(=O)[C@@H](CC(C)C)NC(=O)[C@H](CCCN)NC(=O)[C@H](C(C)C)NC(=O)[C@H](Cc2ccc(-c3ccccc3)cc2)NC1=O` [Compound 1072] ({CH2CO}-FYDWL[Bip]V[Orn][dL][Dab]LVTCA-NH2; thioether N-14) as the compound, how does the pIC50 read?
A: 7.57

Q: With `CC(C)C[C@@H]1NC(=O)[C@H](Cc2c[nH]c3ccccc23)NC(=O)[C@H](CC(=O)O)NC(=O)[C@H](Cc2ccc(O)cc2)NC(=O)[C@H](Cc2ccccc2)NC(=O)CSC[C@@H](C(=O)NCC(N)=O)NC(=O)[C@H](CO)NC(=O)[C@H](C(C)C)NC(=O)[C@H](CC(C)C)NC(=O)[C@H](CCN)NC(=O)[C@@H](CC(C)C)NC(=O)[C@H](CCCN)NC(=O)[C@H](C(C)C)NC(=O)[C@H](Cc2ccc(-c3ccccc3)cc2)NC1=O` [Compound 1073] ({CH2CO}-FYDWL[Bip]V[Orn][dL][Dab]LVSCG-NH2; thioether N-14) as the compound, how does the pIC50 read?
A: 8.00

Q: With `CC(C)C[C@@H]1NC(=O)[C@H](Cc2c[nH]c3ccccc23)NC(=O)[C@H](CC(=O)O)NC(=O)[C@H](Cc2ccc(O)cc2)NC(=O)[C@H](Cc2ccccc2)NC(=O)CSC[C@@H](C(=O)N[C@@H](C)C(N)=O)NC(=O)[C@H](CO)NC(=O)[C@H](C(C)C)NC(=O)[C@H](CC(C)C)NC(=O)[C@H](CC(N)=O)NC(=O)[C@@H](C)NC(=O)[C@H](CN)NC(=O)[C@H](C(C)C)NC(=O)[C@H](Cc2ccc(-c3ccccc3)cc2)NC1=O` [Compound 1075] ({CH2CO}-FYDWL[Bip]V[Dap][dA]NLVSCA-NH2; thioether N-14) as the compound, how does the pIC50 read?
A: 7.30

Q: With `CC(C)C[C@@H]1NC(=O)[C@H](Cc2c[nH]c3ccccc23)NC(=O)[C@H](CC(=O)O)NC(=O)[C@H](Cc2ccc(O)cc2)NC(=O)[C@H](Cc2ccccc2)NC(=O)CSC[C@@H](C(=O)N[C@@H](C)C(N)=O)NC(=O)[C@H]([C@@H](C)O)NC(=O)[C@H](C(C)C)NC(=O)[C@H](CC(C)C)NC(=O)[C@H](CC(N)=O)NC(=O)[C@@H](C)NC(=O)[C@H](CN)NC(=O)[C@H](C(C)C)NC(=O)[C@H](Cc2ccc(-c3ccccc3)cc2)NC1=O` [Compound 1076] ({CH2CO}-FYDWL[Bip]V[Dap][dA]NLVTCA-NH2; thioether N-14) as the compound, how does the pIC50 read?
A: 7.16

Q: `CC(C)C[C@@H]1NC(=O)[C@H](Cc2c[nH]c3ccccc23)NC(=O)[C@H](CC(=O)O)NC(=O)[C@H](Cc2ccc(O)cc2)NC(=O)[C@H](Cc2ccccc2)NC(=O)CSC[C@@H](C(=O)NCC(N)=O)NC(=O)[C@H](CO)NC(=O)[C@H](C(C)C)NC(=O)[C@H](CC(C)C)NC(=O)[C@H](CC(N)=O)NC(=O)[C@@H](C)NC(=O)[C@H](CN)NC(=O)[C@H](C(C)C)NC(=O)[C@H](Cc2ccc(-c3ccccc3)cc2)NC1=O` [Compound 1077] ({CH2CO}-FYDWL[Bip]V[Dap][dA]NLVSCG-NH2; thioether N-14) was tested. Which pIC50 did it give?
A: 7.33
